Measurements taken from US9873709B2 (priority 2013, dated 2018).

Tested on: JAK1-dependent STAT6 phosphorylation downstream of IL-13 stimulation in TF-1 human erythroleukemia cells
Test: cells
Details: TF-1, read-out: IL-13-pSTAT6 IC50

SMILES | IC50 [nM]
CCOC(=O)N1CC=C(c2cccn3nc(Nc4ccc(C(=O)N5CCC(Cc6cccnc6)C5)cc4)nc23)CC1 (centres unmarked) [Example 2-426, ethyl 4-[2-[4-[3-(3-pyridylmethyl)pyrrolidine-1-carbonyl]anilino]-[1,2,4]triazolo[1,5-a]pyridin-8-yl]-3,6-dihydro-2H-pyridine-1-carboxylate] | 51
CCOC(=O)N1CC=C(c2cccn3nc(Nc4ccc(C(=O)N5CCC6CNCC65)cc4)nc23)CC1 (centres unmarked) [Example 2-308, ethyl 4-[2-[4-(3,3a,4,5,6,6a-hexahydro-2H-pyrrolo[2,3-c]pyrrole-1-carbonyl)anilino]-[1,2,4]triazolo[1,5-a]pyridin-8-yl]-3,6-dihydro-2H-pyridine-1-carboxylate] | 76.1
O=C(CCC(F)(F)F)N1CC=C(c2cccn3nc(Nc4ccc(C(=O)N5CCOC6(CCCNC6)C5)cc4)nc23)CC1 (centres unmarked) [Example 2-82, 4,4,4-trifluoro-1-[4-[2-[4-(1-oxa-4,8-diazaspiro[5.5]undecane-4-carbonyl)anilino]-[1,2,4]triazolo[1,5-a]pyridin-8-yl]-3,6-dihydro-2H-pyridin-1-yl]butan-1-one] | 224
O=C(CCC(F)(F)F)N1CC=C(c2cccn3nc(Nc4ccc(C(=O)N5C[C@H]6CNC[C@H]6C5)cc4)nc23)CC1 [Example 2-321, 1-[4-[2-[4-[(3aR,6aS)-2,3,3a,4,6,6a-hexahydro-1H-pyrrolo[3,4-c]pyrrole-5-carbonyl]anilino]-[1,2,4]triazolo[1,5-a]pyridin-8-yl]-3,6-dihydro-2H-pyridin-yl]-4,4,4-trifluoro-butan-1-one] | 250
CN1CCN(C(=O)c2ccc(Nc3nc4c(C5=CCN(C(=O)CCC(F)(F)F)CC5)cccn4n3)cc2)CC(CO)C1 (centres unmarked) [Example 2-144, 4,4,4-trifIuoro-1-[4-[2-[4-[6-(hydroxymethyl)-4-methyl-1,4-diazepane-1-carbonyl]anilino]-[1,2,4]triazolo[1,5-a]pyridin-8-yl]-3,6-dihydro-2H-pyridin-1-yl]butan-1-one] | 187
CN1CCN(C(=O)C2CCN(C(=O)c3ccc(Nc4nc5c(C6=CCN(C(=O)CCC(F)(F)F)CC6)cccn5n4)cc3)CC2)CC1 [Example 2-475, 4,4,4-trifluoro-1-[4-[2-[4-[4-(4-methylpiperazine-1-carbonyl)piperidine-1-carbonyl]anilino]-[1,2,4]triazolo[1,5-a]pyridin-8-yl]-3,6-dihydro-2H-pyridin-1-yl]butan-1-one] | 42.9
O=C(CCC(F)(F)F)N1CC=C(c2cccn3nc(Nc4ccc(C(=O)N5CCC6(CCCNC6)C5)cc4)nc23)CC1 (centres unmarked) [Example 2-253, 1-[4-[2-[4-(2,9-diazaspiro[4.5]decane-2-carbonyl)anilino]-[1,2,4]triazolo[1,5-a]pyridin-8-yl]-3,6-dihydro-2H-pyridin-1-yl]-4,4,4-trifluoro-butan-1-one] | 151
O=C(c1ccc(Nc2nc3c(N4CCC(O)(c5ccc(Cl)cc5)CC4)cccn3n2)cc1)N1CC[C@H]2CNC[C@H]21 [Example 1-241, [(3aS,6aS)-3,3a,4,5,6,6a-hexahydro-2H-pyrrolo[2,3-c]pyrrol-1-yl]-[4-[[8-[4-(4-chlorophenyl)-4-hydroxy-1-piperidyl]-[1,2,4]triazolo[1,5-a]pyridin-2-yl]amino]phenyl] methanone] | 115
O=C(CCC(F)(F)F)N1CC=C(c2cccn3nc(Nc4ccc(C(=O)N5CCCCC56CCNCC6)cc4)nc23)CC1 [Example 2-450, 1-[4-[2-[4-(1,9-diazaspiro[5.5]undecane-1-carbonyl)anilino]-[1,2,4]triazolo[1,5-a]pyridin-8-yl]-3,6-dihydro-2H-pyridin-1-yl]-4,4,4-trifluoro-butan-1-one] | 115
CN1CCC(CCNC(=O)c2ccc(Nc3nc4c(C5=CCN(C(=O)CCC(F)(F)F)CC5)cccn4n3)cc2)CC1 [Example 2-274, N-[2-(1-methyl-4-piperidyl)ethyl]-4-[[8-[1-(4,4,4-trifluorobutanoyl)-3,6-dihydro-2H-pyridin-4-yl]-[1,2,4]triazolo[1,5-a]pyridin-2-yl]amino]benzamide] | 45
COCCC(=O)N1CC=C(c2cccn3nc(Nc4ccc(C(=O)N(C)C5CCN(C)CC5)cc4)nc23)CC1 [Example 2-411, 4-[[8-[1-(3-methoxypropanoyl)-3,6-dihydro-2H-pyridin-4-yl]-[1,2,4]triazolo[1,5-a]pyridin-2-yl]amino]-N-methyl-N-(1-methyl-4-piperidyl)benzamide] | 348
O=C(CCC(F)(F)F)N1CC=C(c2cccn3nc(Nc4ccc(C(=O)N5CCCC56CCNC6)cc4)nc23)CC1 (centres unmarked) [Example 2-440, 1-[4-[2-[4-(1,7-diazaspiro[4.4]nonane-1-carbonyl)anilino]-[1,2,4]triazolo[1,5-a]pyridin-8-yl]-3,6-dihydro-2H-pyridin-1-yl]-4,4,4-trifluoro-butan-1-one] | 156
NCC1CCCN1C(=O)c1ccc(Nc2nc3c(C4=CCN(C(=O)CCC(F)(F)F)CC4)cccn3n2)cc1 (centres unmarked) [Example 2-80, 1-[4-[2-[4-[2-(aminomethyl)pyrrolidine-1-carbonyl]anilino]-[1,2,4]triazolo[1,5-a]pyridin-8-yl]-3,6-dihydro-2H-pyridin-1-yl]-4,4,4-trifluoro-butan-1-one] | 79.4
NCCNC(=O)c1ccc(Nc2nc3c(C4=CCN(C(=O)CCC(F)(F)F)CC4)cccn3n2)cc1 [Example 2-194, N-(2-aminoethyl)-4-[[8-[1-(4,4,4-trifluorobutanoyl)-3,6-dihydro-2H-pyridin-4-yl]-[1,2,4]triazolo[1,5-a]pyridin-2-yl]amino]benzamide] | 94.2

Compounds with a lower IC50, results first:

IC50 [nM] | SMILES
28.9 | CN1CCCC(CNC(=O)c2ccc(Nc3nc4c(C5=CCN(C(=O)CCC(F)(F)F)CC5)cccn4n3)cc2)C1 (centres unmarked) [Example 2-337, N-[(1-methyl-3-piperidyl)methyl]-4-[[8-[1-(4,4,4-trifluorobutanoyl)-3,6-dihydro-2H-pyridin-4-yl]-[1,2,4]triazolo[1,5-a]pyridin-2-yl]amino]benzamide]
15.5 | CN1CCC2(C1)CN(C(=O)c1ccc(Nc3nc4c(N5CCC(O)(c6ccc(Cl)cc6)CC5)cccn4n3)cc1)C2 [Example 1-59, [4-[[8-[4-(4-chlorophenyl)-4-hydroxy-1-piperidyl]-[1,2,4]triazolo[1,5-a]pyridin-2-yl]amino]phenyl]-(7-methyl-2,7-diazaspiro[3.4]octan-2-yl)methanone]
4.7 | CN1CCCC2(CCCN(C(=O)c3ccc(Nc4nc5c(C6=CCN(C(=O)CCC(F)(F)F)CC6)cccn5n4)cc3)C2)C1 (centres unmarked) [Example 2-93, 4,4,4-trifluoro-1-[4-[2-[4-(8-methyl-2,8-diazaspiro[5.5]undecane-2-carbonyl)anilino]-[1,2,4]triazolo[1,5-a]pyridin-8-yl]-3,6-dihydro-2H-pyridin-1-yl]butan-1-one]
4.8 | O=C(NCCc1ccccn1)c1ccc(Nc2nc3c(C4=CCN(C(=O)CCC(F)(F)F)CC4)cccn3n2)cc1 [Example 2-478, N-[2-(2-pyridyl)ethyl]-4-[[8-[1-(4,4,4-trifluorobutanoyl)-3,6-dihydro-2H-pyridin-4-yl]-[1,2,4]triazolo[1,5-a]pyridin-2-yl]amino]benzamide]
4 | O=C(CCC(F)(F)F)N1CC=C(c2cccn3nc(Nc4ccc(C(=O)N5CCN(Cc6cccnc6)CC5)cc4)nc23)CC1 [Example 2-394, 4,4,4-trifluoro-1-[4-[2-[4-[4-(3-pyridylmethyl)piperazine-1-carbonyl]anilino]-[1,2,4]triazolo[1,5-a]pyridin-8-yl]-3,6-dihydro-2H-pyridin-1-yl]butan-1-one]
6.6 | CC1CCN(CCNC(=O)c2ccc(Nc3nc4c(C5=CCN(C(=O)CCC(F)(F)F)CC5)cccn4n3)cc2)CC1 [Example 2-147, N-[2-(4-methyl-1-piperidyl)ethyl]-4-[[8-[1-(4,4,4-trifluorobutanoyl)-3,6-dihydro-2H-pyridin-4-yl]-[1,2,4]triazolo[1,5-a]pyridin-2-yl]amino]benzamide]
16.4 | CN1CCN(CCNC(=O)c2ccc(Nc3nc4c(C5=CCN(C(=O)CCC(F)(F)F)CC5)cccn4n3)cc2)CC1 [Example 2-270, N-[2-(4-methylpiperazin-1-yl)ethyl]-4-[[8-[1-(4,4,4-trifluorobutanoyl)-3,6-dihydro-2H-pyridin-4-yl]-[1,2,4]triazolo[1,5-a]pyridin-2-yl]amino]benzamide]
23.1 | CCOC(=O)N1CC=C(c2cccn3nc(Nc4ccc(C(=O)N5CCCCC5Cc5ccccn5)cc4)nc23)CC1 (centres unmarked) [Example 2-235, ethyl 4-[2-[4-[2-(2-pyridylmethyl)piperidine-1-carbonyl]anilino]-[1,2,4]triazolo[1,5-a]pyridin-8-yl]-3,6-dihydro-2H-pyridine-1-carboxylate]
5.8 | CN1CCOC2(C1)CN(C(=O)c1ccc(Nc3nc4c(C5=CCN(C(=O)CCC(F)(F)F)CC5)cccn4n3)cc1)C2 [Example 2-259, 4,4,4-trifluoro-1-[4-[2-[4-(8-methyl-5-oxa-2,8-diazaspiro[3.5]nonane-2-carbonyl)anilino]-[1,2,4]triazolo[1,5-a]pyridin-8-yl]-3,6-dihydro-2H-pyridin-1-yl]butan-1-one]
23.3 | O=C(CCC(F)(F)F)N1CC=C(c2cccn3nc(Nc4ccc(C(=O)N5CC6(CCCNC6)C5)cc4)nc23)CC1 [Example 2-186, 1-[4-[2-[4-(2,8-diazaspiro[3.5]nonane-2-carbonyl)anilino]-[1,2,4]triazolo[1,5-a]pyridin-8-yl]-3,6-dihydro-2H-pyridin-1-yl]-4,4,4-trifluoro-butan-1-one]
39.4 | CN1CCC(N(C)C(=O)c2ccc(Nc3nc4c(C5=CCN(C(=O)C6CCCC6)CC5)cccn4n3)cc2)CC1 [Example 2-281, 4-[[8-[1-(cyclopentanecarbonyl)-3,6-dihydro-2H-pyridin-4-yl]-[1,2,4]triazolo[1,5-a]pyridin-2-yl]amino]-N-methyl-N-(1-methyl-4-piperidyl)benzamide]
14 | O=C(NCCN1CCOCC1)c1ccc(Nc2nc3c(N4CCC(O)(c5ccc(Cl)cc5)CC4)cccn3n2)cc1 [Example 1-101, 4-[[8-[4-(4-chlorophenyl)-4-hydroxy-1-piperidyl]-[1,2,4]triazolo[1,5-a]pyridin-2-yl]amino]-N-(2-morpholinoethyl)benzamide]
